“Also recorded” adds a separate entry of the source.
Experiments:
[1] = H1-NMR analysis of pH-dependent dissociation of bortezomib-catechol conjugates; type: physicochemical; settings: as the pH decreased from 7.4 to 5.5; 1 mM in deuterated phosphate buffer
Experimental: First, the pH-dependent reversible binding between BTZ and catechol-containing polymers was characterized using H^1-NMR spectroscopy (FIG. 3A). At pH 5.5, mixing BTZ and catechol-containing dopamine (DA) gave a spectrum similar to that of the two individual compounds superimposed on each other, indicating the presence of un-complexed BTZ and DA.
H^1-NMR analysis of pH-dependent dissociation of bortezomib-catechol conjugates. Bortezomib and dopamine hydrogen chloride were dissolved separately in d6-DMSO 0.2 M concentration. The two solutions were mixed to give a stock solution of DA-BTZ conjugate at 0.1 M in DMSO. A solution of 0.1 M monosodium phosphate in D2O was used to dilute the DA-BTZ stock to 1 mM, and pH of such solutions were adjusted with 4N NaOH in D2O to 5.5, 6.5, 7.4 and 8.5. These solutions were analyzed on AVANCE III 500 MHz (FIG. 6) and peak integrals in the range of 7.2 to 5.5 ppm were used for quantifying the degree of dissociation of DA-BTZ presented in FIG. 3B.

[2] = test system: MDA-MB-231, MCF-10A-H-RasV12 and MCF-10A-Vector cells; test: Biotin-mediated cell uptake of PEG-FITC (fluorescence microscopy); type: cell-based, human; settings: 15 minute-treatment; for cellular uptake: 1 μM, cancer and noncancerous cells
[3] = 3-component inhibition fluorescence assay (ARS-bortezomib competition); type: physicochemical; settings: from pH 7.4 to pH 5.5
Experimental: 3-component inhibition fluorescence assay. The fluorescence assay for characterizing pH-sensitive binding between bortezomib and catechol was carried out using procedures modified from the aforementioned literature method. Briefly, a solution of 0.1 mM ARS was prepared in 0.1 M phosphate monosodium buffer (solution A). Bortezomib was dissolved in solution A to achieve final concentration of 1 mM (solution B). The pH of both solution A and solution B was adjusted to 5.5, 6.5 and 7.4 using a 4N NaOH aqueous solution. Solution B was titrated to solution A to make a series of solutions that contain constant concentration of ARS (0.1 mM) and varying concentration of bortezomib (0˜1 mM) at defined pH. After mixing the two solutions, the final solution stood for 5 minutes before fluorescence measurement at excitation 495 nm, emission 565 nm on SpectraMax M5 (Molecular Devices, Sunnyvale, Calif.). This procedure was used to probe the pH-dependence of ARS-BTZ binding (FIG. 6). The binding capacity of catechol for bortezomib was characterized based on the inhibition of catechol on ARS-bortezomib binding, resulting in a decrease in fluorescence intensity. […] Fluorescence intensity of each solution was measured to plot the binding inhibition curves in FIG. 7. […] Fmax refers to the fluorescence intensity of ARS-BTZ conjugate in solution C at a defined pH. […]

Compound: CC(C)CC(NC(=O)C(Cc1ccccc1)NC(=O)c1cnccn1)B1Oc2ccc(CCN)cc2O1 (centres unmarked) [BTZ-catechol conjugate]
- increase in dissociation of the BTZ-catechol conjugate [1]: 50%

Compound: O=C(O)CCCC[C@@H]1SC[C@@H]2NC(=O)N[C@@H]21 [biotin, reference compound]
- inhibition of cellular uptake of biotin-PEG-FITC ([2]; free biotin in buffer): Dose-dependent inhibition

Compound: PEG-FITC
- cellular uptake [2]: little; also recorded: minimal

Compound: PEG-catechol
- decrease in binding affinity for BTZ [3]: about 60%

Compound: biotin-PEG-FITC
- cellular uptake [2]: showed uptake; also recorded: rapidly taken up
